The target of this series is IRF4. Conditions: ASO.

“And” between values parts separate entries of the source, which are not always exact repeats. Identical values can stand only once. After the bases stand the sugars from the 5' end (letter, count) and the backbone: PS all phosphorothioate, else s phosphorothioate and o phosphodiester by linkage. Methylation of C is not given here. e = 2'-O-(2-methoxyethyl) (MOE); k = constrained ethyl (cEt); d = 2'-deoxy (DNA)

For the sequence TTCAACAGCACTGTCC (sugars k3 d10 k3, PS), where the note is “SK-MEL-28, 4 µM”, the target mRNA inhibition was determined as 65%.

Consider GTCACCTGGCAACCAT (sugars k4 d8 k4, PS), for which, where the note is “SK-MEL-28, 4 µM”, the target mRNA inhibition is 41%.

For GGCAGTTGTGCCGTCT (sugars k3 d10 k3, PS), the target mRNA inhibition (MM.1R, 1 µM) was -17%.

Turning to CATGATATTAGAGACT (sugars k3 d10 k3, PS), the target mRNA inhibition (SK-MEL-28, 4 µM) was determined as 56%.

As for “CTCTATAGTGTTCCAG (sugars e1 k2 d9 k2 e2, PS)”, the target mRNA inhibition runs as follows: (MM.1R, 0.074 µM) 20%; (MM.1R, 0.222 µM) 37%; (MM.1R, 0.666 µM) 53%; (MM.1R, 1 µM) 59%; (MM.1R, 2 µM) 75%.

On to CAAAGCGGGTTCACAA (sugars k3 d10 k3, PS), for which the target mRNA inhibition (SK-MEL-28, 4 µM) amounted to 16%.

TTTTGGCTCCCTCAGG (sugars k3 d10 k3, PS): where the note is “MM.1R, 1 µM”, the target mRNA inhibition was -3%.

TTGTGGACACTTTTAG (sugars k3 d10 k3, PS): for the setting “SK-MEL-28, 4 µM”, the target mRNA inhibition is 49%.

For the sequence GACACTTTTAGAGAGG (sugars k3 d10 k3, PS), where the note is “SK-MEL-28, 4 µM”, the target mRNA inhibition is 87% and 78%.

ACGCAGAGCCAGTAGG (sugars k3 d10 k3, PS): the target mRNA inhibition (SK-MEL-28, 4 µM) was 50%.

“GACAGTGACTTGCATC (sugars kdddddddddkekeke, PS)”: the target mRNA inhibition (MM.1R, 1 µM) stood at 0%.

CGACAAGTGGCGCAGA (sugars k3 d10 k3, PS): the target mRNA inhibition (MM.1R, 1 µM) turned out to be 2%.

With GGACCACATCTAATCC (sugars k3 d10 k3, PS), the target mRNA inhibition (MM.1R, 1 µM) is -12%.

Regarding CAGCAACTCCCTTGGG (sugars k3 d10 k3, PS), where the note is “SK-MEL-28, 4 µM”, the target mRNA inhibition worked out at 23%.

For the sequence TCCCTCCAGCTTCGGT (sugars k3 d10 k3, PS), where the note is “MM.1R, 1 µM”, the target mRNA inhibition was -21%.

For the sequence GTAAGGGCTGCTCATT (sugars k3 d10 k3, PS), the target mRNA inhibition (SK-MEL-28, 4 µM) was 52%.

Take CTTCAGCAAAGAGGGT (sugars k3 d10 k3, PS): the target mRNA inhibition (SK-MEL-28, 4 µM) was found to be 59%.

Regarding GCACAGTCTCTTTTTA (sugars k3 d10 k3, PS), for the setting “SK-MEL-28, 4 µM”, the target mRNA inhibition was 36%.

ATCTTAACCTGGAGAA (sugars k3 d10 k3, PS): the target mRNA inhibition (SK-MEL-28, 4 µM) worked out at 28%.

Take TCCCGAGGCCGGAGAC (sugars k3 d10 k3, PS): where the note is “SK-MEL-28, 4 µM”, the target mRNA inhibition is -27%.

On to CACTGGCATTGAGACG (sugars k3 d10 k3, PS), for which the target mRNA inhibition (SK-MEL-28, 4 µM) was 69% and 76%.

Regarding AACTTATAGCACTCTC (sugars k3 d10 k3, PS), where the note is “SK-MEL-28, 4 µM”, the target mRNA inhibition was 28%.

As to CGCACTAAGTGGGCTC (sugars k3 d10 k3, PS), the target mRNA inhibition (SK-MEL-28, 4 µM) amounted to 14%.

Regarding GCATGGATCCTGAGAG (sugars k3 d10 k3, PS), the target mRNA inhibition (MM.1R, 1 µM) came to 11%.

ACCACGCCCCTCTCCA (sugars k3 d10 k3, PS): the target mRNA inhibition (SK-MEL-28, 4 µM) was determined as 9%.

For the sequence GGCAACAGTTCAAGTA (sugars k3 d10 k3, PS), the target mRNA inhibition (SK-MEL-28, 4 µM) is 57%.

Consider GATAACCTGAACATGA (sugars k3 d10 k3, PS), for which the target mRNA inhibition (SK-MEL-28, 4 µM) was 17%.

With AGACAAGTGCCCATCC (sugars k3 d10 k3, PS), the target mRNA inhibition (MM.1R, 1 µM) came out at 1%.

As for CATTGGACCCACGAAG (sugars k3 d10 k3, PS), the target mRNA inhibition (SK-MEL-28, 4 µM) worked out at 28%.

Take CTGGTAACTGTATGGA (sugars k3 d10 k3, PS): the target mRNA inhibition (MM.1R, 1 µM) was 17%.

Consider “CAGTGATGTCAGGTTT (sugars kkkdddddddddkeke, PS)”, for which, where the note is “MM.1R, 1 µM”, the target mRNA inhibition came out at 34%.

Consider TTAACCAATCCCAACA (sugars k3 d10 k3, PS), for which, where the note is “SK-MEL-28, 4 µM”, the target mRNA inhibition is 30%.

Consider “ACTGTTACCGATGCTT (sugars kkdddddddddkekek, PS)”, for which the target mRNA inhibition (MM.1R, 1 µM) was 30% and 18%.

Take TGTGAAGCATCCTTTC (sugars k3 d10 k3, PS): the target mRNA inhibition (SK-MEL-28, 4 µM) came out at 45%.

GAAGTACGAGCACATG (sugars k3 d10 k3, PS): the target mRNA inhibition (MM.1R, 1 µM) stood at 18%.

For GCTCACCGCGCTCATG (sugars k3 d10 k3, PS), the target mRNA inhibition (SK-MEL-28, 4 µM) amounted to 48%.

Turning to CCCACGCGGGAGGCTC (sugars k3 d10 k3, PS), the target mRNA inhibition (MM.1R, 1 µM) is -23%.

Regarding CAAATGACTTAGTCAG (sugars k3 d10 k3, PS), the target mRNA inhibition (SK-MEL-28, 4 µM) amounted to 55%.

Take GCGGAGGTTCCTTGAG (sugars k3 d10 k3, PS): the target mRNA inhibition (SK-MEL-28, 4 µM) was determined as 44%.

For TCAAAAGTCTTAAGGG (sugars k3 d10 k3, PS), the target mRNA inhibition (SK-MEL-28, 4 µM) came to 7%.

For the sequence CGCCAGCCAGATGTTT (sugars k3 d10 k3, PS), where the note is “MM.1R, 1 µM”, the target mRNA inhibition was -15%.

For AACAAAAGGTTCCCGC (sugars k3 d10 k3, PS), the target mRNA inhibition (SK-MEL-28, 4 µM) is 40%.

As for TCGGTCCACATACCTG (sugars k3 d10 k3, PS), where the note is “SK-MEL-28, 4 µM”, the target mRNA inhibition came to 39%.

Regarding AGATAGTTAAGTACTT (sugars k3 d10 k3, PS), the target mRNA inhibition (SK-MEL-28, 4 µM) came to 11%.

Regarding ATCAGATTGAATCCAT (sugars k3 d10 k3, PS), where the note is “MM.1R, 1 µM”, the target mRNA inhibition was found to be 23%.

Regarding TCTTTATAGTAGGTAA (sugars k3 d10 k3, PS), the target mRNA inhibition (MM.1R, 1 µM) is 14%.

In the case of “AGCTTGATAAAGGCTG (sugars kkddddddddddkeke, PS)”, for the setting “MM.1R, 1 µM”, the target mRNA inhibition came to 1%.

As for TAGGTATACTTAAGCA (sugars k3 d10 k3, PS), the target mRNA inhibition (SK-MEL-28, 4 µM) was 79%.

In the case of CTCCACGCGCGGAGGA (sugars k3 d10 k3, PS), the target mRNA inhibition (SK-MEL-28, 4 µM) was -1%.

Turning to AACAGATAACGAGGTG (sugars k3 d10 k3, PS), the target mRNA inhibition (SK-MEL-28, 4 µM) was -4%.

Take GAAAAGCAGCGAAAAG (sugars k3 d10 k3, PS): the target mRNA inhibition (SK-MEL-28, 4 µM) worked out at 2%.

The values are drawn from the OligoGym collection.
